Source: patent publication US11820822B2, “Methods for sensitizing cancer cells to T cell-mediated killing by modulating molecular pathways” (DANA-FARBER CANCER INSTITUTE, INC., priority 2017, dated 2023)

How the values were obtained:
[1] = tested on: B16F10-Cas9 cells co-cultured with Pmel-1 T cells; assay: Genome-scale CRISPR-Cas9 screen, selection with Pmel-1 T cells; type: cell-based, mouse; details: Table 3; B16F10-Cas9 cells pre-treated with IFNγ, co-cultured with Pmel-1 T cells 1:1 for three days; negative = depleted, positive = enriched
[2] = tested on: B16F10-Cas9 cells pulsed with SIINFEKL peptide, co-cultured with OT-I T cells; assay: Genome-scale CRISPR-Cas9 screen, selection with OT-I T cells; type: cell-based, mouse; details: Table 3; B16F10-Cas9 cells pulsed with SIINFEKL, co-cultured with OT-I T cells 1:1 for one day; negative = depleted, positive = enriched

Sequence	Pmel+ (sgRNA Log(2) fold change, Pmel-1 selection versus control T cells) [1]	OT1 (sgRNA Log(2) fold change, OT-I selection versus control T cells) [2]
CAAAGTCTGCTGTCCGACCT (chemistry not fully specified)	2.57	0.41
CAAGAGCCAGACCTTGGATG (chemistry not fully specified)	0.41	-2.86
CAATAATGCTGGTCTACGTG (chemistry not fully specified)	2.58	0.89
CACACCCTTACTGCCCGTCG (chemistry not fully specified)	-1.34	-2.48
CACCGGATCGTCCAATTCCG (chemistry not fully specified)	-0.88	-2.82
CACTGCGAGACCAATCTAGA (chemistry not fully specified)	2.24	1.44
CAGCAGCAAGTTCACAGGTG (chemistry not fully specified)	-1.37	-3.04
CAGCATTGACAATACGACCA (chemistry not fully specified)	0.62	-3.84
CAGCCTGCTGAGGATCCAGA (chemistry not fully specified)	-1.07	-2.33
CAGGACTTCTGGTCTATCCG (chemistry not fully specified)	-1.47	-3.14
CAGTGTCACAACCCACCGGA (chemistry not fully specified)	0.23	-2.75
CATAGCCAGAACAGTTGACC (chemistry not fully specified)	-0.66	-2.44
CATGAGGTAGAATAGTTCGT (chemistry not fully specified)	2.15	-0.65
CATGCAATACATGCCAAAGG (chemistry not fully specified)	-0.22	-2.39
CCAAACACCCCACATATGGT (chemistry not fully specified)	-0.79	-2.24
CCATATCCAAATAGCCACAG (chemistry not fully specified)	-2.19	-3.59
CCATTGTATAACTGTCTGCG (chemistry not fully specified)	-1.14	-3.02
CCCACGAATTCGTCACAGGG (chemistry not fully specified)	2.63	1.32
CCCGGACTGGATCAACACCG (chemistry not fully specified)	-0.09	-3.76
CCCGGGAATAGCGTACAGCT (chemistry not fully specified)	0.70	-2.71
CCGAGACCCCAATAGTGCAA (chemistry not fully specified)	2.89	0.71
CCGCAGCAGATAGACACCAT (chemistry not fully specified)	-0.11	-2.54
CCGCTCGAAGAAGCACTCCT (chemistry not fully specified)	0.95	-3.04

Sequence	Pmel+ (sgRNA Log(2) fold change, Pmel-1 selection versus control T cells) [1]	OT1 (sgRNA Log(2) fold change, OT-I selection versus control T cells) [2]
CCTCCGACATTCCGTAACTG (chemistry not fully specified)	-1.90	-2.32
CCTGGGCTAGCACATAACCA (chemistry not fully specified)	0.10	-3.35
CCTGGGTACCAACTGACGAA (chemistry not fully specified)	-2.96	-2.91
CCTTCAATAACGTTAAACAG (chemistry not fully specified)	-0.26	-2.79
CCTTTAGTAGCAGAAGCCGC (chemistry not fully specified)	0.73	-2.95
CGACGCAAGTGGGAGCAGAG (chemistry not fully specified)	3.91	-2.09
CGATGCCATTCGAATGACAG (chemistry not fully specified)	8.40	1.57
CGGATGGCCACACGTAACAG (chemistry not fully specified)	3.00	0.20
CGGCCCGCCGATGTCGTGTG (chemistry not fully specified)	-0.25	-3.19
CGGGTATTACAGACTAACTG (chemistry not fully specified)	3.20	2.71
CTCAGCTGGATACAACCAGG (chemistry not fully specified)	0.00	-2.27
CTCTTCCAACACGTCCAAGT (chemistry not fully specified)	3.56	0.64
CTGAGCATGTCTAACACGAG (chemistry not fully specified)	-0.37	-2.99
CTGCACCAATGTTGGTCACG (chemistry not fully specified)	2.82	0.32
CTGCAGCATATCGTCAACCA (chemistry not fully specified)	-0.72	-2.30
CTGTTACCTTCATAGATAAG (chemistry not fully specified)	0.00	-2.50
CTTCAGATCTCTCTCGAATG (chemistry not fully specified)	-2.11	-2.84
CTTCCTGGACATCGACGTGG (chemistry not fully specified)	0.56	-2.12
CTTGGTCAAATACACTACAG (chemistry not fully specified)	2.66	1.61
CTTGTGACGGTAATTCTGAA (chemistry not fully specified)	0.00	-2.48
GAAAAATCTGTACACCACCG (chemistry not fully specified)	-0.30	-2.64
GAAAAGCAAGCGTAATCTCC (chemistry not fully specified)	8.13	2.70
GAACACTCAGCAAATTACAG (chemistry not fully specified)	-0.81	-2.58
